Measured values reported in US20250353891A1 (MEDIMMUNE LIMITED, priority 2022, published 2025).
Like-named read-outs stand apart in the source and are kept apart here. Starred links: 1 amine or outer side, 2 acyl side, 3 side chain; linkers in the order of their positions; H or OH if unused. Non-standard residues stand in square brackets, D forms with d. Residues, ends and D or L forms follow the SMILES beside them. Groups on a side chain read outwards from the residue. *: point of attachment. C18 diacid = O=C(O)CCCCCCCCCCCCCCCCC(=O)*; γGlu = O=C(O)[C@H](CCC(=O)[*:2])N[*:1]; αMeF = C[C@](N)(Cc1ccccc1)C(=O)O; AEEA = NCCOCCOCC(=O)O; Aib = CC(C)(N)C(=O)O

Key:
[1] = target: human glucagon receptor (hGCGR) (Homo sapiens, UniProt P47871); test: cAMP production (HTRF) in CHO cells expressing hGCGR; format: cell-based; design: expressed in transfected cells; details: cAMP in CHO hGCGR cells, geometric mean, read-out: hGluc-R EC50
Outline: (§1)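 Potency values represent EC50 from 4-parameter logistic curves of HTRF % Delta F signal. Receptor-expressing CHO cells (hGCGR 2×10^5 cells/mL, hGLP-1R 1×10^5 cells/mL) were exposed for 30 min at room temperature before two-step cAMP detection.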

[2] = target: human GLP-1 receptor (hGLP-1R) (Homo sapiens, UniProt P43220); test: cAMP production (HTRF) in CHO cells expressing hGLP-1R; format: cell-based; design: expressed in transfected cells; details: for EC50: cAMP in CHO hGLP-1R cells, geometric mean, read-out: hGLP-1R EC50; for % Relative Potency Ratio: % GLP-1R activity relative to GLP-1 / % GlucR activity relative to glucagon
Outline: as §1

[3] = Table 6, peptides modified at position 17
[4] = Table 7, peptides modified at position 20

human GLP-1 receptor (hGLP-1R), sequence (P43220 24-463): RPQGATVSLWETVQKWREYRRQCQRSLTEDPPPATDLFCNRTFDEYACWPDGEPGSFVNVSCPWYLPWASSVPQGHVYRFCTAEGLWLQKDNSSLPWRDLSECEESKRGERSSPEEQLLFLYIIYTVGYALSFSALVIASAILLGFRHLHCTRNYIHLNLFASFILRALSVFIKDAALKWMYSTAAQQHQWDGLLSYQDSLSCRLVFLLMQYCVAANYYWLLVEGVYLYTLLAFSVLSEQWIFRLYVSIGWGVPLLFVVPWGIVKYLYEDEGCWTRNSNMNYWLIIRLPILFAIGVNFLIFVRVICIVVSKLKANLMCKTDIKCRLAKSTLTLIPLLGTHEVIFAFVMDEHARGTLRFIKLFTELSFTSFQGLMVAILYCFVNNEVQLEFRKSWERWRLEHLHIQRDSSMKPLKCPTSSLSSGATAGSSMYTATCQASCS
human glucagon receptor (hGCGR), sequence (P47871 26-477): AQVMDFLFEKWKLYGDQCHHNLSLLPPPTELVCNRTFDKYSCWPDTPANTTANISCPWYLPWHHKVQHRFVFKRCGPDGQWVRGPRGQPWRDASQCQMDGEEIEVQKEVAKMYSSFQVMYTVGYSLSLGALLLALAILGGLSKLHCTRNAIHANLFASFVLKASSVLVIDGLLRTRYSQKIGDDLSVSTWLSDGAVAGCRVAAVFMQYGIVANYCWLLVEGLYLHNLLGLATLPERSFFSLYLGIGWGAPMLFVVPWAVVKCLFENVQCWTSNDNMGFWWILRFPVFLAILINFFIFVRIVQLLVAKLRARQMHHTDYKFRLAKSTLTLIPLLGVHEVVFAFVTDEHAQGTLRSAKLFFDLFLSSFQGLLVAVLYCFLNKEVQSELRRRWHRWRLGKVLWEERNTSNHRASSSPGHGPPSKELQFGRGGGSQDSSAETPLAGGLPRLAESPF

Compound	EC50 [1, 3] [nM]	EC50 [2, 3] [nM]	% Relative Potency Ratio ([2]; Table 6)	EC50 [1, 4] [nM]	EC50 [2, 4] [nM]	% Relative Potency Ratio ([2]; Table 7)
CC(C)C[C@H](NC(=O)[C@H](Cc1c[nH]c2ccccc12)NC(=O)[C@H](CCCNC(=N)N)NC(=O)[C@@H](NC(=O)[C@H](Cc1ccccc1)NC(=O)[C@H](CC(=O)O)NC(=O)[C@H](CCCNC(=N)N)NC(=O)[C@H](C)NC(=O)[C@H](CCCNC(=N)N)NC(=O)[C@H](CCCCNC(=O)COCCOCCNC(=O)COCCOCCNC(=O)CC[C@H](NC(=O)CCCCCCCCCCCCCCCCC(=O)O)C(=O)O)NC(=O)[C@@H](NC(=O)[C@H](CC(=O)O)NC(=O)[C@H](CC(C)C)NC(=O)[C@](C)(Cc1ccccc1)NC(=O)[C@H](CCCCN)NC(=O)[C@H](CO)NC(=O)[C@@H](NC(=O)[C@H](CC(=O)O)NC(=O)[C@H](CO)NC(=O)[C@@H](NC(=O)[C@H](Cc1ccccc1)NC(=O)[C@@H](NC(=O)CNC(=O)[C@H](CCC(N)=O)NC(=O)C(C)(C)NC(=O)[C@@H](N)Cc1c[nH]cn1)[C@@H](C)O)[C@@H](C)O)C(C)C)[C@@H](C)O)C(C)C)C(=O)N[C@@H](CC(C)C)C(=O)NC(C)(C)C(=O)N[C@@H](CCC(=O)O)C(=O)O [Peptide 197] (H-H[Aib]QGTFTSDVSK[αMeF]LDTK([AEEA-AEEA-γGlu-C18 diacid])RARDFVRWLL[Aib]E-OH; N-terminus assumed)	0.112	0.064	3.5	–	–	–
CC[C@H](C)[C@H](NC(=O)[C@H](Cc1ccccc1)NC(=O)[C@H](CC(=O)O)NC(=O)[C@H](CCCNC(=N)N)NC(=O)[C@H](C)NC(=O)[C@H](CCCNC(=N)N)NC(=O)[C@H](CCCCNC(=O)COCCOCCNC(=O)COCCOCCNC(=O)CC[C@H](NC(=O)CCCCCCCCCCCCCCCCC(=O)O)C(=O)O)NC(=O)[C@@H](NC(=O)[C@H](CC(=O)O)NC(=O)[C@H](CC(C)C)NC(=O)[C@](C)(Cc1ccccc1)NC(=O)[C@H](CCCCN)NC(=O)[C@H](CO)NC(=O)[C@@H](NC(=O)[C@H](CC(=O)O)NC(=O)[C@H](CO)NC(=O)[C@@H](NC(=O)[C@H](Cc1ccccc1)NC(=O)[C@@H](NC(=O)CNC(=O)[C@H](CCC(N)=O)NC(=O)C(C)(C)NC(=O)[C@@H](N)Cc1c[nH]cn1)[C@@H](C)O)[C@@H](C)O)C(C)C)[C@@H](C)O)C(=O)N[C@@H](C)C(=O)N[C@@H](Cc1c[nH]c2ccccc12)C(=O)N[C@@H](CC(C)C)C(=O)N[C@@H](CC(C)C)C(=O)NC(C)(C)C(=O)N[C@@H](CCC(=O)O)C(=O)O [Peptide 198] (H-H[Aib]QGTFTSDVSK[αMeF]LDTK([AEEA-AEEA-γGlu-C18 diacid])RARDFIAWLL[Aib]E-OH; N-terminus assumed)	0.302	0.212	2.8	–	–	–
CC[C@H](C)[C@H](NC(=O)[C@H](Cc1ccccc1)NC(=O)[C@H](CC(=O)O)NC(=O)[C@H](CCCNC(=N)N)NC(=O)[C@H](C)NC(=O)[C@H](CCCNC(=N)N)NC(=O)[C@H](CCCCNC(=O)COCCOCCNC(=O)COCCOCCNC(=O)CC[C@H](NC(=O)CCCCCCCCCCCCCCCCC(=O)O)C(=O)O)NC(=O)[C@@H](NC(=O)[C@H](CC(=O)O)NC(=O)[C@H](CC(C)C)NC(=O)[C@](C)(Cc1ccccc1)NC(=O)[C@H](CCCCN)NC(=O)[C@H](CO)NC(=O)[C@@H](NC(=O)[C@H](CC(=O)O)NC(=O)[C@H](CO)NC(=O)[C@@H](NC(=O)[C@H](Cc1ccccc1)NC(=O)[C@@H](NC(=O)CNC(=O)[C@H](CCC(N)=O)NC(=O)C(C)(C)NC(=O)[C@@H](N)Cc1c[nH]cn1)[C@@H](C)O)[C@@H](C)O)C(C)C)[C@@H](C)O)C(=O)N[C@@H](C)C(=O)N[C@@H](Cc1c[nH]c2ccccc12)C(=O)N[C@@H](CC(C)C)C(=O)N[C@@H](CC(C)C)C(=O)N[C@@H](CCC(=O)O)C(=O)NC(C)(C)C(=O)NCC(=O)O [Peptide 199] (H-H[Aib]QGTFTSDVSK[αMeF]LDTK([AEEA-AEEA-γGlu-C18 diacid])RARDFIAWLLE[Aib]G-OH)	0.18	0.0316	11.3	–	–	–
CC(C)C[C@H](NC(=O)[C@H](Cc1c[nH]c2ccccc12)NC(=O)[C@H](C)NC(=O)[C@@H](NC(=O)[C@H](Cc1ccccc1)NC(=O)[C@H](CC(=O)O)NC(=O)[C@H](CCCNC(=N)N)NC(=O)[C@H](C)NC(=O)[C@H](CCCNC(=N)N)NC(=O)[C@H](CCCCNC(=O)COCCOCCNC(=O)COCCOCCNC(=O)CC[C@H](NC(=O)CCCCCCCCCCCCCCCCC(=O)O)C(=O)O)NC(=O)[C@@H](NC(=O)[C@H](CC(=O)O)NC(=O)[C@H](CC(C)C)NC(=O)[C@](C)(Cc1ccccc1)NC(=O)[C@H](CCCCN)NC(=O)[C@H](CO)NC(=O)[C@@H](NC(=O)[C@H](CC(=O)O)NC(=O)[C@H](CO)NC(=O)[C@@H](NC(=O)[C@H](Cc1ccccc1)NC(=O)[C@@H](NC(=O)CNC(=O)[C@H](CCC(N)=O)NC(=O)C(C)(C)NC(=O)[C@@H](N)Cc1c[nH]cn1)[C@@H](C)O)[C@@H](C)O)C(C)C)[C@@H](C)O)C(C)C)C(=O)N[C@@H](CC(C)C)C(=O)N[C@@H](CCC(=O)O)C(=O)NC(C)(C)C(=O)NCC(=O)O [Peptide 200] (H-H[Aib]QGTFTSDVSK[αMeF]LDTK([AEEA-AEEA-γGlu-C18 diacid])RARDFVAWLLE[Aib]G-OH)	0.0977	0.0227	8.5	–	–	–
CC(C)C[C@H](NC(=O)[C@H](Cc1c[nH]c2ccccc12)NC(=O)[C@H](C)NC(=O)[C@@H](NC(=O)[C@H](Cc1ccccc1)NC(=O)[C@H](CC(=O)O)NC(=O)[C@H](CCCNC(=N)N)NC(=O)[C@H](C)NC(=O)[C@H](CCCNC(=N)N)NC(=O)[C@H](CCCCNC(=O)COCCOCCNC(=O)COCCOCCNC(=O)CC[C@H](NC(=O)CCCCCCCCCCCCCCCCC(=O)O)C(=O)O)NC(=O)[C@@H](NC(=O)[C@H](CC(=O)O)NC(=O)[C@H](CC(C)C)NC(=O)[C@](C)(Cc1ccccc1)NC(=O)[C@H](CCCCN)NC(=O)[C@H](CO)NC(=O)[C@@H](NC(=O)[C@H](CC(=O)O)NC(=O)[C@H](CO)NC(=O)[C@@H](NC(=O)[C@H](Cc1ccccc1)NC(=O)[C@@H](NC(=O)CNC(=O)[C@H](CCC(N)=O)NC(=O)C(C)(C)NC(=O)[C@@H](N)Cc1c[nH]cn1)[C@@H](C)O)[C@@H](C)O)C(C)C)[C@@H](C)O)C(C)C)C(=O)N[C@@H](CCC(=O)O)C(=O)N[C@@H](C)C(=O)NC(C)(C)C(=O)NCC(=O)O [Peptide 201] (H-H[Aib]QGTFTSDVSK[αMeF]LDTK([AEEA-AEEA-γGlu-C18 diacid])RARDFVAWLEA[Aib]G-OH)	0.183	0.0227	15.9	–	–	–
CC(C)C[C@H](NC(=O)[C@H](Cc1c[nH]c2ccccc12)NC(=O)[C@H](CCC(N)=O)NC(=O)[C@@H](NC(=O)[C@H](Cc1ccccc1)NC(=O)[C@H](CC(=O)O)NC(=O)[C@H](CCCNC(=N)N)NC(=O)[C@H](C)NC(=O)[C@H](CCCNC(=N)N)NC(=O)[C@H](CCCCNC(=O)COCCOCCNC(=O)COCCOCCNC(=O)CC[C@H](NC(=O)CCCCCCCCCCCCCCCCC(=O)O)C(=O)O)NC(=O)[C@@H](NC(=O)[C@H](CC(=O)O)NC(=O)[C@H](CC(C)C)NC(=O)[C@](C)(Cc1ccccc1)NC(=O)[C@H](CCCCN)NC(=O)[C@H](CO)NC(=O)[C@@H](NC(=O)[C@H](CC(=O)O)NC(=O)[C@H](CO)NC(=O)[C@@H](NC(=O)[C@H](Cc1ccccc1)NC(=O)[C@@H](NC(=O)CNC(=O)[C@H](CCC(N)=O)NC(=O)C(C)(C)NC(=O)[C@@H](N)Cc1c[nH]cn1)[C@@H](C)O)[C@@H](C)O)C(C)C)[C@@H](C)O)C(C)C)C(=O)N[C@@H](CCC(=O)O)C(=O)N[C@@H](C)C(=O)NC(C)(C)C(=O)NCC(=O)O [Peptide 202] (H-H[Aib]QGTFTSDVSK[αMeF]LDTK([AEEA-AEEA-γGlu-C18 diacid])RARDFVQWLEA[Aib]G-OH; N-terminus assumed)	0.242	0.0178	26.9	–	–	–
CC[C@H](C)[C@H](NC(=O)[C@H](Cc1c[nH]c2ccccc12)NC(=O)[C@H](CCC(N)=O)NC(=O)[C@@H](NC(=O)[C@H](Cc1ccccc1)NC(=O)[C@H](CC(=O)O)NC(=O)[C@H](CCCCNC(=O)COCCOCCNC(=O)COCCOCCNC(=O)CC[C@H](NC(=O)CCCCCCCCCCCCCCCCC(=O)O)C(=O)O)NC(=O)[C@H](C)NC(=O)[C@H](C)NC(=O)[C@H](CCCNC(=N)N)NC(=O)[C@H](CO)NC(=O)[C@H](CC(=O)O)NC(=O)[C@H](CC(C)C)NC(=O)[C@](C)(Cc1ccccc1)NC(=O)[C@H](CCCCN)NC(=O)[C@H](CO)NC(=O)[C@@H](NC(=O)[C@H](CC(=O)O)NC(=O)[C@H](CO)NC(=O)[C@@H](NC(=O)[C@](C)(Cc1ccccc1)NC(=O)[C@H](CO)NC(=O)CNC(=O)[C@H](Cc1c[nH]cn1)NC(=O)C(C)(C)NC(=O)[C@@H](N)Cc1c[nH]cn1)[C@@H](C)O)C(C)C)C(C)C)C(=O)N[C@@H](C)C(=O)N[C@@H](CC(N)=O)C(=O)N[C@H](C(N)=O)[C@@H](C)O [Peptide 205] (H-H[Aib]HGS[αMeF]TSDVSK[αMeF]LDSRAAK([AEEA-AEEA-γGlu-C18 diacid])DFVQWIANT-NH2)	–	–	–	0.00814	0.0299	0.5
